From ChEMBL document CHEMBL1201862, “PubChem BioAssay data set” (2004) come the findings set out here.

Some test systems named below: HCT-15; CCRF-CEM; T47D; IGROV-1; UACC-257; SK-MEL-2; SR; CAKI-1; SW-620; MCF7; HL-60; KM12; UO-31; COLO 205; Hs-578T; SK-MEL-5; HCT-116; BT-549; PC-3; RXF 393.
Experiment in all cases: growth of human tumour cells (NCI), 48 h

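Following 48 hours of exposure in 96-well plates, responses at five concentrations were used to interpolate endpoints linearly. At the GI50, growth is halved.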 Activity calls are given as the source filed them. Cut-off read from the data, not from the text of the source: active = GI50 up to about 1.1 µM and inactive = higher.

For `CCCCNc1nc2ccccc2c2c1ncn2CC(C)C`, the GI50 with HCT-15 was more than 100 µM; in the experiment with CCRF-CEM, > 100 µM (inactive); in the experiment with T47D it was > 100 µM (inactive); in the experiment on IGROV-1, > 100 µM (inactive); with UACC-257, > 100 µM (inactive); with SK-MEL-2 it was > 100 µM (inactive). Further, the GI50 with SR, in the experiment on CAKI-1, in the experiment on SW-620, in the experiment on MCF7, in the experiment on HL-60 and with KM12 was > 100 µM (inactive) each time. Besides, the GI50 with UO-31, in the experiment on COLO 205, with Hs-578T, with SK-MEL-5, with HCT-116 and with BT-549 was > 100 µM (inactive) in each case. Besides, the GI50 in the experiment with PC-3 and in the experiment with RXF 393 was > 100 µM (inactive) each time.

For `Clc1ccc(OCC2NC3C=CC32)cn1` (stereo not given), the GI50 with HCT-15 is more than 100 µM; in the experiment with CCRF-CEM, 56.9 µM (inactive); in the experiment on T47D, > 100 µM (inactive); in the experiment with IGROV-1 it was > 100 µM (inactive); in the experiment on UACC-257, > 100 µM (inactive); with SK-MEL-2 it was > 100 µM (inactive). For the same molecule, the GI50 in the experiment with SR was 39.8 µM (inactive); with CAKI-1 it was > 100 µM (inactive); in the experiment on SW-620, > 100 µM (inactive); in the experiment with MCF7, 55 µM (inactive); with HL-60, > 100 µM (inactive); in the experiment with KM12, > 100 µM (inactive). Moreover, the GI50 was 44.7 µM (inactive) with UO-31; > 100 µM (inactive) in the experiment on COLO 205; > 100 µM (inactive) with Hs-578T; > 100 µM (inactive) with SK-MEL-5; > 100 µM (inactive) in the experiment on HCT-116; > 100 µM (inactive) in the experiment with BT-549. For the same molecule, the GI50 with PC-3 and in the experiment on RXF 393 was > 100 µM (inactive) in each case.

For the molecule `CCOC(=O)N/N=C(/N)c1cccc([N+](=O)[O-])c1`, the GI50 was more than 100 µM in the experiment with HCT-15; > 100 µM (inactive) in the experiment on CCRF-CEM; > 100 µM (inactive) in the experiment with T47D; > 100 µM (inactive) in the experiment on IGROV-1; > 100 µM (inactive) in the experiment on UACC-257; > 100 µM (inactive) in the experiment on SK-MEL-2. Also, the GI50 in the experiment with SR, in the experiment on CAKI-1, in the experiment with SW-620, with MCF7, with HL-60 and with KM12 was > 100 µM (inactive) each time. Besides, the GI50 in the experiment with UO-31, in the experiment with COLO 205, in the experiment with Hs-578T, in the experiment with SK-MEL-5, with HCT-116 and in the experiment on BT-549 was > 100 µM (inactive) throughout. The GI50 with PC-3 and in the experiment on RXF 393 was > 100 µM (inactive) in each case.

For the molecule `O=C(Oc1ccccn1)c1cc2cc(CCl)ccc2oc1=O`, the GI50 was 39.4 µM in the experiment with HCT-15; 30.4 µM (inactive) in the experiment on CCRF-CEM; 32.7 µM (inactive) with T47D; > 100 µM (inactive) in the experiment on IGROV-1; 77.1 µM (inactive) in the experiment with UACC-257; 25.9 µM (inactive) in the experiment on SK-MEL-2. Besides, the GI50 in the experiment on SR was 30.4 µM (inactive); in the experiment on CAKI-1, 28.7 µM (inactive); in the experiment with SW-620, 30.8 µM (inactive); with MCF7 it was 38.5 µM (inactive); in the experiment on HL-60, 41.8 µM (inactive); in the experiment with KM12, 66.8 µM (inactive). The GI50 with UO-31 is 33.7 µM (inactive); with COLO 205, 51.2 µM (inactive); in the experiment with Hs-578T it was 21.7 µM (inactive); in the experiment with SK-MEL-5, 51.8 µM (inactive); in the experiment with HCT-116, 25.8 µM (inactive); in the experiment with BT-549, 22.3 µM (inactive). In addition, the GI50 in the experiment on PC-3 is 18.5 µM (inactive); in the experiment with RXF 393, 19 µM (inactive).

Take `NNS(=O)(=O)c1cc(C(=O)O)cc(C(=O)O)c1`: the GI50 in the experiment on HCT-15 was more than 100 µM; in the experiment with CCRF-CEM, 28.5 µM (inactive); in the experiment with T47D, > 100 µM (inactive); in the experiment on IGROV-1 it was > 100 µM (inactive); in the experiment with UACC-257, > 100 µM (inactive); in the experiment on SK-MEL-2, > 100 µM (inactive). Also, the GI50 in the experiment with SR, in the experiment on CAKI-1, in the experiment on SW-620, in the experiment with MCF7, in the experiment with HL-60 and in the experiment on KM12 was > 100 µM (inactive) in each case. The GI50 in the experiment on UO-31 is > 100 µM (inactive); in the experiment with COLO 205, > 100 µM (inactive); in the experiment with Hs-578T, 1.09 µM (active); with SK-MEL-5, > 100 µM (inactive); in the experiment with HCT-116, > 100 µM (inactive); in the experiment with BT-549 it was > 100 µM (inactive). For the same molecule, the GI50 in the experiment on PC-3 and in the experiment with RXF 393 was > 100 µM (inactive) each time.

For the molecule `O=C1C=CC(=O)N1c1ccc(I)cc1`, the GI50 with HCT-15 is 11.5 µM; in the experiment with CCRF-CEM, 3.1 µM (inactive); in the experiment on T47D it was 25.6 µM (inactive); with IGROV-1 it was 24.9 µM (inactive); in the experiment with UACC-257, 18 µM (inactive); in the experiment with SK-MEL-2, 20.4 µM (inactive). Besides, the GI50 in the experiment on SR was 5.77 µM (inactive); in the experiment with CAKI-1, 17.5 µM (inactive); in the experiment with SW-620, 7.08 µM (inactive); in the experiment with MCF7, 17.4 µM (inactive); with HL-60, 2.84 µM (inactive); in the experiment with KM12, 21.4 µM (inactive). The GI50 was 18.9 µM (inactive) in the experiment with UO-31; 6.18 µM (inactive) in the experiment with COLO 205; 23.4 µM (inactive) with Hs-578T; 18.6 µM (inactive) in the experiment on SK-MEL-5; 15.6 µM (inactive) in the experiment on HCT-116; 19 µM (inactive) in the experiment with BT-549. In addition, the figures for the GI50 with PC-3 and in the experiment with RXF 393 were 18.3 µM (inactive) and 17.9 µM (inactive), respectively.
